Structures are written as SMILES. Structures can show the parent of a compound that is named as a salt.

The first test deals with T1, human hNET (Homo sapiens, UniProt P23975).
T1 construct: expressed in transfected cells; host or cells: MDCK-Net6 (MDCK cells stably transfected with hNET)
T1 sequence (P23975 whole entry): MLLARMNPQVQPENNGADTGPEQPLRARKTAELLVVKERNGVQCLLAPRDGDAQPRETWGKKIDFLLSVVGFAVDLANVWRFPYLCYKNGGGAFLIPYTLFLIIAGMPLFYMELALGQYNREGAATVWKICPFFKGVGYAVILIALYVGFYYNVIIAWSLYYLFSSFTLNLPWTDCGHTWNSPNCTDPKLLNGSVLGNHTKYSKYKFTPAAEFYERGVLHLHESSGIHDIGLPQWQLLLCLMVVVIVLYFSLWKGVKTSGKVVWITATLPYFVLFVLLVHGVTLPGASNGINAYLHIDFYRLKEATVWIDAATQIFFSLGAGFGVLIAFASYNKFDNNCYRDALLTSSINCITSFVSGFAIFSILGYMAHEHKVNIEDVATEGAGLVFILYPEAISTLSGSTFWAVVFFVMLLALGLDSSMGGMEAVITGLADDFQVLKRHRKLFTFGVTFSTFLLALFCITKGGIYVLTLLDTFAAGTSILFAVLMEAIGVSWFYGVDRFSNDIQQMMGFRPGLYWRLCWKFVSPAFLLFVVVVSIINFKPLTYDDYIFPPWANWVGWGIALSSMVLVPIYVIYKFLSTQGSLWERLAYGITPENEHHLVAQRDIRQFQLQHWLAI
The test can be described thus: Functional norepinephrine reuptake assay, Procedure B (6,000 cells/well). It counts as cell-based.
Details: not given
Summed up:
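MDCK cells stably expressing human NET, 6,000 cells/well, in HEPES-buffered saline pH 7.4 with ascorbic acid and 1 μM pargyline; compound preincubated 5 min at 37° C. ^3H norepinephrine uptake counted by scintillation; non-specific defined with 20 μM desipramine. IC50 from variable-slope sigmoidal nonlinear fit.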
Regarding `CNCCC[C@@H]1Cc2cc(F)ccc2N(c2c(F)cccc2F)S1(=O)=O` (single isomer, unassigned) [Example 156], the concentration for half-maximal inhibition (IC50) stood at 27 nM.

The test is the same for the next values; noted with them: MDCK-Net6 cells, 6,000 cells/well, 16 nM 3H-norepinephrine; read-out: Procedure B hNET uptake IC50.
Regarding `CNCCCC1Cc2cc(F)ccc2N(c2cc(F)ccc2F)S1(=O)=O` (racemic) [Example 151, 3-[1-(2,5-difluorophenyl)-6-fluoro-2,2-dioxido-3,4-dihydro-1H-2,1-benzothiazin-3-yl]-N-methylpropan-1-amine], the half-maximal inhibitory concentration (IC50) worked out at 31 nM.
For `CNCCCC1Oc2cc3ccccc3cc2N(c2cccc(F)c2)S1(=O)=O` (stereo not shown) [Example 70, 3-[1-(3-fluorophenyl)-2,2-dioxido-1H-naphtho[2,3-e][1,3,4]oxathiazin-3-yl]-N-methylpropan-1-amine Hydrochloride], the 50% inhibitory concentration (IC50) turned out to be 119 nM.
As to `CNCCCC1Sc2ccccc2N(c2cccc(F)c2)S1(=O)=O` (stereo not shown) [Example 61, 3-[1-(3-fluorophenyl)-2,2-dioxido-1H-2,4,1-benzodithiazin-3-yl]-N-methylpropan-1-amine hydrochloride], the IC50 is 80.7 nM.
The same measure, in the same setting: the result for `CNCCC[C@H]1Cc2ccccc2N(c2ccccc2F)S1(=O)=O` (single isomer, unassigned) [Example 90] reads 59 nM.
Same read-out and setting: the result for `CNCCC[C@H]1Cc2cc(F)ccc2N(c2ccc(F)cc2F)S1(=O)=O` (single isomer, unassigned) [Example 112] reads 100 nM.
The same measure, in the same setting: the same measure for `CNCCN(C)CC1Oc2ccccc2N(c2ccccc2)S1(=O)=O` (stereo not shown) [Example 139, N-[(2,2-dioxido-1-phenyl-1H-4,2,1-benzoxathiazin-3-yl)methyl]-N,N′-dimethylethane-1,2-diamine]: 644 nM; for `CNCCCC1Sc2ccccc2N(c2ccccc2)S1(=O)=O` (stereo not shown) [Example 59, 3-(2,2-dioxido-1-phenyl-1H-2,4,1-benzodithiazin-3-yl)-N-methylpropan-1-amine Hydrochloride]: 122 nM.
`CNCCC[C@H]1Oc2ccccc2N(c2ccccc2)S1(=O)=O` (single isomer, unassigned) [Example 13]: the half-inhibitory concentration (IC50) was found to be 38.7 nM.
On the same count and under the same terms, the same measure for `CNCCCC1Oc2ccccc2N(c2cccc(C)c2)S1(=O)=O` (stereo not shown) [Example 16, N-methyl-3-[1-(3-methylphenyl)-2,2-dioxido-1H-4,2,1-benzoxathiazin-3-yl]propan-1-amine]: 361 nM.
For `CNCCCC1Cc2cc(F)ccc2N(c2ccccc2C#N)S1(=O)=O` (racemic) [Example 163, 2-{6-fluoro-3-[3-(methylamino)propyl]-2,2-dioxido-3,4-dihydro-1H-2,1-benzothiazin-1-yl}benzonitrile], the IC50 was determined as 189 nM.
On the same count and under the same terms, the result for `CNCCCC1Oc2ccccc2N(c2ccc3ccccc3c2)S1(=O)=O` (stereo not shown) [Example 21, N-methyl-3-[1-(2-naphthyl)-2,2-dioxido-1H-4,2,1-benzoxathiazin-3-yl]propan-1-amine] reads 4570 nM; that for `CNCCC[C@@H]1Cc2cc(F)ccc2N(c2ccccc2C)S1(=O)=O` (single isomer, unassigned) [Example 162], 135 nM.
In the case of `CNCCC[C@@H]1Cc2ccccc2N(c2cccnc2)S1(=O)=O` (single isomer, unassigned) [Example 125], the 50% inhibitory concentration (IC50) came to 238 nM.
On to `CNCCCC1Oc2ccc(F)cc2N(c2ccccc2)S1(=O)=O` (stereo not shown) [Example 44, 3-(7-fluoro-2,2-dioxido-1-phenyl-1H-4,2,1-benzoxathiazin-3-yl)-N-methylpropan-1-amine], for which the IC50 is 875 nM.
Still for that read-out and setting: the result for `CNCCCC1Oc2cc(F)ccc2N(c2ccccc2F)S1(=O)=O` (stereo not shown) [Example 129, 3-[6-fluoro-1-(2-fluorophenyl)-2,2-dioxido-1H-4,2,1-benzoxathiazin-3-yl]-N-methylpropan-1-amine hydrochloride] reads 95 nM; that for `CNCCCC1Oc2ccccc2N(c2ccc(OC)cc2)S1(=O)=O` (stereo not shown) [Example 19, 3-[1-(4-methoxyphenyl)-2,2-dioxido-1H-4,2,1-benzoxathiazin-3-yl]-N-methylpropan-1-amine], 1200 nM.
The same measure, in the same setting: the result for `CNCCCC1Oc2ccc(Cl)cc2N(c2ccccc2)S1(=O)=O` (stereo not shown) [Example 53, 3-(7-chloro-2,2-dioxido-1-phenyl-1H-4,2,1-benzoxathiazin-3-yl)-N-methylpropan-1-amine] reads 187 nM; that for `NCC[C@H]1Oc2ccccc2N(c2ccccc2)S1(=O)=O` (single isomer, unassigned) [Example 102], 1270 nM.
On the same count and under the same terms, the result for `CNCCCC1Cc2cc(Cl)ccc2N(c2ccccc2F)S1(=O)=O` (stereo not shown) [Example 175, 3-[6-chloro-1-(2-fluorophenyl)-2,2-dioxido-3,4-dihydro-1H-2,1-benzothiazin-3-yl]-N-methylpropan-1-amine] reads 42 nM.
As for `CNCCC[C@H]1Cc2ccccc2N(c2ccc(F)cc2F)S1(=O)=O` (single isomer, unassigned) [Example 100], the half-inhibitory concentration (IC50) worked out at 343 nM.
Same read-out and setting: the result for `CNCCC[C@@H]1Cc2ccccc2N(c2ccccn2)S1(=O)=O` (single isomer, unassigned) [Example 128] reads 89 nM; that for `CNCCCC1Sc2ccccc2N(c2cccc(OC)c2)S1(=O)=O` (stereo not shown) [Example 62, 3-[1-(3-methoxyphenyl)-2,2-dioxido-1H-2,4,1-benzodithiazin-3-yl]-N-methylpropan-1-amine Hydrochloride], 338 nM.
`CNCCC[C@H]1Cc2cc(F)ccc2N(c2cccc(F)c2F)S1(=O)=O` (single isomer, unassigned) [Example 146]: the IC50 worked out at 66 nM.
On the same count and under the same terms, the same measure for `CCCNCCCC1Oc2ccccc2N(c2ccccc2)S1(=O)=O` (stereo not shown) [Example 35, 3-(2,2-dioxido-1-phenyl-1H-4,2,1-benzoxathiazin-3-yl)-N-propylpropan-1-amine]: 5100 nM; for `CNCCC[C@H]1Cc2cc(F)ccc2N(c2cc(F)ccc2F)S1(=O)=O` (single isomer, unassigned) [Example 152]: 40 nM; for `CNCCCC1Oc2ccccc2N(c2ccc(F)cc2)S1(=O)=O` (stereo not shown) [Example 15, 3-[1-(4-fluorophenyl)-2,2-dioxido-1H-4,2,1-benzoxathiazin-3-yl]-N-methylpropan-1-amine]: 492 nM.
Turning to `CNCCC[C@@H]1Oc2ccccc2N(c2ccccc2F)S1(=O)=O` (single isomer, unassigned) [Example 94], the IC50 was determined as 22 nM.
On the same count and under the same terms, the result for `CCNCCCC1Oc2ccccc2N(c2ccccc2)S1(=O)=O` (stereo not shown) [Example 34, 3-(2,2-dioxido-1-phenyl-1H-4,2,1-benzoxathiazin-3-yl)-N-ethylpropan-1-amine] reads 2580 nM; that for `CNCCC[C@@H]1Cc2cc(F)ccc2N(c2cccc(F)c2F)S1(=O)=O` (single isomer, unassigned) [Example 147], 34 nM; that for `CCCCNCCC1Oc2ccccc2N(c2ccccc2)S1(=O)=O` (stereo not shown) [Example 31, N-[2-(2,2-dioxido-1-phenyl-1H-4,2,1-benzoxathiazin-3-yl)ethyl]butan-1-amine], 1660 nM.
Still for that read-out and setting: the result for `CNCCCC1Oc2ccccc2N(c2cc(C)cc(C)c2)S1(=O)=O` (stereo not shown) [Example 22, 3-[1-(3,5-dimethylphenyl)-2,2-dioxido-1H-4,2,1-benzoxathiazin-3-yl]-N-methylpropan-1-amine] reads 4150 nM; that for `CNCCC[C@H]1Cc2cc(F)ccc2N(c2ccccc2C)S1(=O)=O` (single isomer, unassigned) [Example 161], 143 nM.
As to `CNCCCC1Oc2ccccc2N(c2cccc(OC)c2)S1(=O)=O` (stereo not shown) [Example 18, 3-[1-(3-methoxyphenyl)-2,2-dioxido-1H-4,2,1-benzoxathiazin-3-yl]-N-methylpropan-1-amine], the 50% inhibitory concentration (IC50) was determined as 353 nM.
Same read-out and setting: the same measure for `CNCCCC1Sc2ccccc2N(c2cccc(Cl)c2)S1(=O)=O` (stereo not shown) [Example 66, 3-[1-(3-chlorophenyl)-2,2-dioxido-1H-2,4,1-benzodithiazin-3-yl]-N-methylpropan-1-amine Hydrochloride]: 2020 nM; for `CCNCC1Oc2ccccc2N(c2ccccc2)S1(=O)=O` (stereo not shown) [Example 136, N-[(2,2-dioxido-1-phenyl-1H-4,2,1-benzoxathiazin-3-yl)methyl]ethanamine]: 1360 nM.

Staying with this test, now noted: MDCK-Net6 cells, 6,000 cells/well; Conc 6000 nM (6 μM); hydrochloride.
`CN1CCN(CCC2Oc3ccccc3N(c3ccccc3)S2(=O)=O)CC1` (stereo not shown) [Example 87, 3-[2-(4-Methyl-piperazin-1-yl)-ethyl]-1-phenyl-1H-benzo[1,3,4]oxathiazine 2,2-dioxide hydrochloride]: the “Procedure B hNET uptake (% inhibition)” value turned out to be 35%.

The test is the same for the next values; noted with them: MDCK-Net6 cells, 6,000 cells/well; Conc 6000 nM (6 μM); read-out: Procedure B hNET uptake (% inhibition).
For `O=S1(=O)C(CCCNC2CCC2)Oc2ccccc2N1c1ccccc1` (stereo not shown) [Example 41, N-[3-(2,2-dioxido-1-phenyl-1H-4,2,1-benzoxathiazin-3-yl)propyl]cyclobutanamine], the inhibition at 6 µM is 50%.
`CNCCCC1Cc2ccccc2N(c2ccncc2)S1(=O)=O` (racemic) [Example 133, 3-(2,2-dioxido-1-pyridin-4-yl-3,4-dihydro-1H-2,1-benzothiazin-3-yl)-N-methylpropan-1-amine]: the inhibition at 6 µM turned out to be 35%.
On the same count and under the same terms, the same measure for `CN1CCN(CCC2Oc3ccccc3N(c3ccccc3)S2(=O)=O)CC1` (stereo not shown) [Example 30, 3-[2-(4-methylpiperazin-1-yl)ethyl]-1-phenyl-1H-4,2,1-benzoxathiazine 2,2-dioxide]: 35%; for `O=S1(=O)C(CCCNC2CCCCC2)Oc2ccccc2N1c1ccccc1` (stereo not shown) [Example 43, N-[3-(2,2-dioxido-1-phenyl-1H-4,2,1-benzoxathiazin-3-yl)propyl]cyclohexanamine]: 67%.
On the same count and under the same terms, the result for `O=S1(=O)C(CCCNC2CCCC2)Oc2ccccc2N1c1ccccc1` (stereo not shown) [Example 42, N-[3-(2,2-dioxido-1-phenyl-1H-4,2,1-benzoxathiazin-3-yl)propyl]cyclopentanamine] reads 48%.
On the same count and under the same terms, the result for `CC(C)NCCCC1Oc2ccccc2N(c2ccccc2)S1(=O)=O` (stereo not shown) [Example 37, 3-(2,2-dioxido-1-phenyl-1H-4,2,1-benzoxathiazin-3-yl)-N-isopropylpropan-1-amine] reads 15%.

The values are drawn from patent US20080171737A1 (Wyeth, priority 2006, published 2008).
